SMILES strings stand for the structures. pIC50: −log10 of the molar value. Read-outs that look alike come from different tables or passages of the source. Bounds are passed on as bounds.

Series [1] concerns Human Immunodeficiency Virus Type 1 (HIV-1). In words: CPE-inhibition assay with HIV-1 in ATH8 cells. The format is cell-based. As to conditions: Human immunodeficiency virus 1, ATH-8, 240 h, read-out: 50% Inhibitory Concentration, Virus Tested: HIV. The method, then:
(§1) The human OKT4^+ T-cell clone, ATH8, was obtained from Dr. Samuel Broder's laboratory (NCI) through Dr. Hiroaki Mitsuya. These cells are propagated in RPMI 1640 medium supplemented with 4 mM glutamine, 15% heat-inactivated fetal bovine serum, antibiotics (50 units of penicillin and 50 μg of streptomycin per ml), and 50 units of recombinant-derived human interleukin-2 (ala-125; AMGen Biologicals) per ml. […]
The testing of compounds for antiviral activity employed the modified CPE-inhibition assay described in Mitsuya, H.; Weinhold, K. J.; Furman, P. A.; St. Clair, M. H.; Lehrman, S. N.; Gallo, R. C.; Bolognesi, D.; Barry, D. W.; Broder, S. Proc. Natl. Acad. Sci. USA, (1985) 82, 7096 and Mitsuya, H.; Broder, S. Proc. Natl. Acad. Sci. USA, 1986, 83 1911. […] The protective effect of test compounds was assessed by adding them at varying concentrations to the cultured cells at the time of virus infection, then monitoring the status of the cell pellet.
(§2) ATH8 cells were used as the primary targeted cells in the HIV-induced CPE-inhibition assay. […] These compounds were evaluated at seven half-log dilutions. […] On day 10 post-infection aliquots were taken from individual wells and the total cell number and cell viability (based on trypan-blue dye exclusion) determined. […]

Series [2] has as its system Human Cytomegalovirus (HCMV). In words: HCMV plaque reduction in HFF cells. In kind it is cell-based, HCMV (Towne strain, isolate PO); human foreskin fibroblasts. As to conditions: read-out: 50% Inhibitory Concentration, Virus Tested: HCMV. The method, then: (§3) KB cells, an established human cell line derived from an epidermoid oral carcinoma, were routinely grown in minimal essential medium (MEM) with Hanks salts [MEM(H)] supplemented with 5% fetal bovine serum. African green monkey kidney (BSC-1) cells and diploid human foreskin fibroblasts (HFF cells) were grown in MEM with Earle's salts [MEM(E)] supplemented with 10% fetal bovine serum. Cells were passaged according to conventional procedures as described in Shipman, C., Jr.; Smith, S. H.; Carlson, R. H.; Drach, J. C. Antimicrob. Agents Chemother., 1976, 9, 120. The plaque-purified isolate, PO, of the Towne strain of HCMV was used in all experiments and was a gift of Dr. Mark Stinski, University of Iowa. The S-148 strain of HSV-1 was provided by Dr. T. W. Schafer of Schering Corp. Stock preparations of HCMV and HSV-1 were prepared and titered as described in Turk, S. R.; Shipman, C., Jr.; Nassari, R.; Genzlinger, G.; Krawczyk, S. H.; Townsend, L. B.; Drach, J. C. Antimicrob. Agents Chemother., 1987, 31, 544.
(§4) HCMV plaque reduction experiments were performed using monolayer cultures of HFF cells by a procedure similar to that referenced above for titration of HCMV, with the exceptions that the virus inoculum (0.2 ml) contained approximately 50 PFU of HCMV and the compounds to be assayed were dissolved in the overlay medium. HSV-1 plaque reduction experiments were performed using monolayer cultures of BSC-1 cells. The assay was performed exactly as referenced above for HSV-1 titration assays except that the 0.2 ml of virus suspension contained approximately 100 PFU of HSV-1 and the compounds to be tested were dissolved in the overlay medium.
(§5) Dose-response relationships were constructed by linearly regressing the percent inhibition of parameters derived in the preceding sections against log drug concentrations. 50% inhibitory (I50) concentrations were calculated from the regression lines. The three I50 concentrations for inhibition of DNA, RNA and protein synthesis were averaged to give the values reported in Table I for KB cell cytotoxicity. Samples containing positive controls (acyclovir, ganciclovir, or vidarabine) were used in all assays. Results from sets of assays were rejected if inhibition by the positive control deviated from its mean response by more than 1.5 standard deviations.

Series [3] concerns Herpes Virus Type 1 (HSV-1). Nature of the series: HSV-1 plaque reduction in BSC-1 cells. In kind it is cell-based. As to conditions: read-out: 50% Inhibitory Concentration, Virus Tested: HSV-1. The method, then: as §3, §4, §5
^a In experiments with HSV1 both the HF and 148 strains were used.

Series [4] is described as follows: Cytotoxicity in ATH8 cells (total cell number and viability, trypan-blue dye exclusion). As to conditions: human; uninfected ATH8 cells; read-out: 50% Inhibitory Concentration, Cytotoxicity: ATH8. In kind it is cell-based. The method, then:
as §1, with “ml. The clone H9 cell lines, an OKT4^+ human T-cell line which is permissive for HIV replication but largely resistant to virus-induced CPE, H9 cells productively infected with the HTLV-IIIB strain of HIV, and H9 cells productively infected with the RF-II Haitian variant of HIV have been obtained from Dr. Robert Gallo's laboratory (NCI) through Dr. Howard Streicher.” for “ml.”
as §2
Dose-response relationships were constructed by linearly regressing the percent inhibition of parameters derived in the preceding sections against log drug concentrations. 50% inhibitory (I50) concentrations were calculated from the regression lines. […]

A short description of series [5]: Visual cytotoxicity in uninfected HFF cells. The format is cell-based. Particulars: human; visual cytotoxicity scored on uninfected HFF cells at time of HCMV plaque determination; read-out: 50% Inhibitory Concentration, Cytotoxicity: HFF. The method, then: as §3
(§6) Two basic tests for cellular cytotoxicity were routinely employed for compounds examined in antiviral assays. Cytotoxicity produced in HFF and BSC-1 cells was estimated by visual scoring of cells not affected by virus infection in the plaque reduction assays described above. Cytopathology was estimated at 35- and 60-fold magnification and scored on a zero to four plus basis on the day of staining for plaque enumeration. Cytotoxicity in KB cells was determined by measuring the effects of compounds on the incorporation of radioactive precursors into DNA, RNA and protein as described in Turk, S. R.; Shipman, C., Jr.; Nassari, R.; Genzlinger, G.; Krawczyk, S. H.; Townsend, L. B.; Drach, J. C. Antimicrob. Agents Chemother., 1987, 31, 544.
as §5
(§7) ^b Visual cytotoxicity scored on uninfected HFF or BSC cells at time
(§8) of HCMV or HSV1 plaque determination.

Series [6] in a line: Visual cytotoxicity in uninfected BSC-1 cells. The format is cell-based. Particulars: african green monkey, visual cytotoxicity scored on uninfected BSC cells at time of HSV1 plaque determination, read-out: 50% Inhibitory Concentration, Cytotoxicity: BSC. The procedure: as §3, §6, §5, §7, §8
Series [7] can be described thus: Cytotoxicity in KB cells (inhibition of DNA, RNA and protein synthesis). As to conditions: human, average of inhibition of DNA, read-out: 50% Inhibitory Concentration, Cytotoxicity: KB. The format is cell-based. The procedure:
as §3, §6, §5
^c Average percent inhibition of DNA, RNA and protein synthesis
determined in KB cells as described in the text.

[8] abbreviates: Human alphaherpesvirus 1, BSC-1, in Chlorocebus sabaeus.
Setting [9] is: Human betaherpesvirus 5, plaque reduction, HFF cells.
Where [10] appears, read: Human alphaherpesvirus 1, in Chlorocebus sabaeus, plaque reduction, BSC-1 cells, both the HF and 148 strains were used.

Turning to `NC(=O)c1cn([C@H]2CC[C@@H](CO)O2)c2ncnc(N)c12` [Dideosysangivamycin, 4-amino-7-(2',3'-dideoxy-β-D-ribofuranosyl)pyrrolo[2,3-d]-pyrimidine-5-carboxamide], the pIC50 in series [1] is 5.52; in series [2] (Human betaherpesvirus 5, HFF) it was less than 4.00; in series [3] (setting [8]) it was less than 4.00. Further, the CC50 in series [4] was 100 µM; in series [5], more than 100 µM; in series [6] it was more than 100 µM; in series [7] it was more than 100 µM.

With `NC(=O)c1cn([C@H]2C=C[C@@H](CO)O2)c2ncnc(N)c12` [Dideoxydidehydrosangivamycin, 4-amino-7-(2',3'-dideoxy-2',3'-didehydro-β-D-ribofuranosyl)-pyrrolo-[2,3-d]pyrimidine-5-carboxamide], the pIC50 in series [2] (Human betaherpesvirus 5, HFF) is less than 4.00; in series [3] (setting [8]), less than 4.00. In addition, the CC50 was more than 100 µM in series [5], more than 100 µM in series [6] and 54 µM in series [7].

`N#Cc1cn([C@H]2C=C[C@@H](CO)O2)c2ncnc(N)c12` [Dideoxydidehydrotoyocamycin, 4-amino-5-cyano-7-(2',3'-dideoxy-2',3'-didehydro-β-D-glycero-pentofuranosyl)-pyrrolo[2,3-d]pyrimidine]: the figures for the pIC50 in series [2] (setting [9]) and in series [3] (setting [10]) were 5.29 and 4.39, respectively. The CC50 in series [5], in series [6] and in series [7] was more than 100 µM throughout.

Take `Nc1ncnc2c1ccn2[C@H]1C=C[C@@H](CO)O1` [Dideoxydidehydrotubercidin, 4-amino-7(2',3'-dideoxy-2',3'-didehydro-β-ribofuranosyl)-pyrrolo[2,3-d] pyrimidine]: the pIC50 in series [2] (setting [9]) and in series [3] (setting [10]) was less than 4.00 throughout. In addition, the CC50 in series [5] and in series [6] was more than 100 µM in each case.

Regarding `Nc1ncnc2c1ccn2[C@H]1CC[C@@H](CO)O1` [Dideoxytubercidin, 4-amino-7-(2',3'-dideoxy-β-D-ribofuranosyl)pyrrolo[2,3-d]-pyrimidine], the pIC50 in series [2] (setting [9]) and in series [3] (setting [10]) was less than 4.00 each time. Further, the CC50 in series [5] and in series [6] was more than 100 µM throughout.

With `N#Cc1cn([C@H]2CC[C@@H](CO)O2)c2ncnc(N)c12` [Dideoxytoyocamycin, 4-amino-5-cyano-7-(2',3'-dideoxy-β-D-ribofuranosyl)-pyrrolo-[2,3-d]-pyrimidine], the pIC50 in series [1] (ATH8 cells, day 10 post-infection) was 5.52; in series [2] (setting [9]) it was 4.74; in series [3] (setting [10]), 4.68. In addition, the CC50 in series [4] is 100 µM; in series [5] it was more than 100 µM; in series [6], more than 100 µM; in series [7], 54 µM.

Source of the values: patent US4892865A, “Pyrrolo[2,3-d]pyrimidine nucleosides as antiviral agents” (The Regents of the University of Michigan, priority 1987, dated 1990).
